Reference: patent US20210069295A1, “GALECTINS CONTROL MTOR IN RESPONSE TO ENDOMEMBRANE DAMAGE AND PROVIDE A MECHANISM AND TARGET FOR THE TREATMENT OF AUTOPHAGY-RELATED DISEASES” (STC. UNM, priority 2017, published 2021)
Peptide text beside a SMILES is read from it.

Experiments:
mTOR, Raptor, RagA, p14 = test: APEX2 proximity biotinylation with streptavidin enrichment and immunoblotting in HEK293T cells; assay type: cell-based; conditions: for mTOR, Raptor and RagA found in the proximity of the galectin: APEX2-galectin fusions
Description: (A) Analysis of the puncta formation of galectins in response to GPN. HeLa cells overexpressing YFP-fused with the indicated galectins were treated with 100 μM GPN or without (Ctrl) in full medium for 1 h and galectin puncta were quantified by HC. […] White masks, algorithm defined cell boundaries (primary objects); green masks, computer-identified galectins puncta (target objects). Data, means±SEM, n≥3 independent experiments (500 primary objects counted per well; ≥5 wells/sample per each experiment); *p<0.05, **p<0.01, † p≥0.05, ANOVA. (B) Immunoprecipitation analysis of the interactions between galectins and mTOR or RagA GTPase. HEK293T cells overexpressing FLAG-tagged galectins were subjected to anti-FLAG immunoprecipitation followed by immunoblotting for endogenous mTOR or RagA. (C) Immunoprecipitation analysis of interactions between Gal8 and mTOR protein complexes in response to GPN treatment. THP-1 cells not treated or treated with 100 μM GPN in full medium for 1 h were subjected to immunoprecipitation with anti-Gal8 antibody, followed by immunoblotting for endogenous RagA, p14, mTOR or Raptor. (D) Analysis of the proximity of Gal8 to mTOR and other proteins in mTOR complexes in response to GPN. Biotinylated proteins from HEK293T cell expressing APEX2-vector or APEX2-Gal8, after GPN and biotin phenol (BP) treatment were affinity-enriched by binding to streptavidin-beads, and samples were analyzed by immunoblotting analysis for endogenous RagA, p14, mTOR or Raptor. Data, means±SEM, (n=3), **p<0.01, ANOVA. (E) Immunoprecipitation analysis of the interactions between Gal8 and RagA GTPase and its mutants. Lysates of HEK293T cells overexpressing FLAG-Gal8 and HA-tagged RagA proteins (RagAWT, RagAT21L or RagAQ66L) were subjected to anti-FLAG immunoprecipitation, followed by immunoblotting for HA-tagged RagA proteins. (F) Immunoprecipitation analysis of the interactions between Gal8 and RagC GTPase and its mutants. HEK293T cells overexpressing FLAG-Gal8 and HA-tagged RagC proteins (RagCWT, RagCS75L or RagCQ120L) lysates were subjected to anti-FLAG immunoprecipitation, followed by immunoblotting for HA-tagged RagC proteins.
HEK293T cells transfected with pJJiaDEST-APEX2 or pJJiaDEST-APEX2-Gal8 were incubated with 100 μM GPN (Cayman Chemicals) in full medium for 1 h (confluence of cells remained at 70-80%). Cells were next incubated in 500 μM biotin-phenol (AdipoGen) in full medium for the last 30 min of GPN incubation. A 1 min pulse with 1 mM H2O2 at room temperature was stopped with quenching buffer (10 mM sodium ascorbate, 10 mM sodium azide and 5 mM Trolox in Dulbecco's Phosphate Buffered Saline (DPBS)). All samples were washed twice with quenching buffer, and twice with DPBS.
For immunoblotting analysis, cell pellets were lysed with 500 μL ice-cold RIPA lysis buffer (ThermoFisher Scientific) with protease inhibitor cocktail (Roche), 1 mM PMSF (sigma), 10 mM sodium ascorbate, 10 mM sodium azide and 5 mM Trolox, gently pipetted and then the incubated for 30 min. The lysates were clarified by centrifugation at 13,000 rpm for 5 min, followed by measuring protein concentrations using a Pierce BCA Protein Assay kit, with freshly made bovine serum albumin (BSA) solutions as standards. Streptavidin-coated magnetic beads (ThermoFisher Scientific) were washed with RIPA lysis buffer. 3 mg of each sample was mixed with 100 μL of streptavidin beads. […] 15 μL of each sample was separated by SDS-PAGE and analyzed by Western blot using indicated antibodies.

[1] = tested on: LAMTOR1/p18 and Rag GTPases; test: GST-pulldown assay with in vitro translated proteins; assay type: binding; conditions: 35S-methionine labeled
Description: (D) Immunoprecipitation analysis of interactions between Gal8 and Ragulator components p14, p18 and MP1. HEK293T cells overexpressing FLAG-tagged Gal8 were immunoprecipitated/collected with anti-FLAG (beads). Cell lysates and collected immune complexes were blotted for endogenous p18, p14, and MP1. (E)(i-ii) GST pulldown assay with in vitro translated Myc-tagged Gal8 or Gal9 and GST-tagged p18. GST-tagged p18 immobilized on Gluthatione sepharose beads were incubated with in vitro translated Myc-tagged Gal8 or Gal9 radiolabeled with 35S-methionine. Interactions were assessed by autoradiography. Data (% binding), means±SEM, n=3, † p≥0.05, **p<0.01, ANOVA. (F)(i-iv) GST pulldown assay with in vitro translated Myc-tagged Rag proteins and GST-tagged Gal8. […] Interactions were assessed by autoradiography. […]
GST and GST-tagged proteins were produced in SoluBL21 Competent E. coli (Genlantis, C700200) and purified by binding to Glutathionine Sepharose 4 Fast Flow beads (GE Healthcare, 17-5132-01) while myc-tagged proteins were in vitro translated using the TNT T7 Reticulocyte Lysate System (Promega, 14610) in the presence of ^35S-methionine. […] Radioactive signals were detected by Fujifilm bioimaging analyzer BAS-5000 and quantified with ScienceLab ImageGuage software (Fujifilm).

Row | Compound | proximity of Gal8 to Ragulator (LAMTOR2/p14) and RagA (mTOR, Raptor, RagA, p14; APEX2-Gal8 HEK293T, GPN) | proximity of Gal8 to mTOR and Raptor (mTOR, Raptor, RagA, p14; APEX2-Gal8 HEK293T, GPN) | mTOR, Raptor and RagA found in the proximity of the galectin (mTOR, Raptor, RagA, p14) | direct binding to Ragulator (LAMTOR1/p18) and Rag GTPases in GST-pulldown [1]
1 | NCC(=O)N[C@@H](Cc1ccccc1)C(=O)Nc1ccc2ccccc2c1 [GPN, glycyl-L-phenylalanine 2-naphththylamide] (HELM PEPTIDE1{G.F.[c1ccc2cc(N[*:1])ccc2c1]}$$$$V2.0) | increased proximity | decreased proximity | – | –
2 | Gal8: protein of the galectin family encoded by the gene LGALS8; beta-galactoside-binding lectin | – | – | in the proximity | direct interactions
3 | Gal9: beta-galactoside-binding lectin protein of the galectin family | – | – | not in the proximity | did not show direct binding
